Assay results as given in patent US10882867B2, “Forms and compositions of a MK2 inhibitor” (Celgene CAR LLC, priority 2017, dated 2021).
Converted amounts (≈) assume the structure as drawn. Values belong to the molecule of their own block, whether it stands above or below them.

Experiments:
[1] = DSC and TGA thermal analysis; conditions: for endotherm observed (DSC): complex of Compound 1 with co-former, sample from primary salt/co-crystal screen; for % loss (TGA): screen sample
[2] = Form conversion (form transfer) experiments: slurry, compression, heating, humidity cycle; assay type: physicochemical
Experimental: Form conversion experiments were performed to determine interconversion among solid forms.
The stability of Form A was further characterized by compression test and form transfer experiments (Table 6). Upon application of 2000-psi pressure for about 1 minute, the material was still Form A, with broader diffraction peaks (FIG. 42(c)).

[3] = Dynamic vapor sorption (DVS) hygroscopicity; assay type: physicochemical; conditions: for Hygroscopicity: DVS, 0 to 90% RH
Experimental: Hygroscopicity was determined on a Surface Measurement Systems DVS. A sample size of 5-20 mg was loaded into the DVS instrument sample pan and the sample was analyzed on a DVS automated sorption analyzer at room temperature. The relative humidity was increased from 0% to 90% RH at 10% RH step, then decreased in a similar manner to accomplish a full adsorption/desorption cycle. FIGS. 29-33 depict the DVS isotherm plots of Forms A, C, D, E, and I.

[4] = Approximate solubility of Compound 1 Form A at room temperature; assay type: physicochemical; conditions: for solubility at 1 day: thermodynamic from solid
Text: Solubility of Form A was approximated in the following solvents: acetonitrile (ACN), ACN/water (1:1), n-butanol (n-BuOH), absolute ethanol (EtOH), ethanol/water (1:1), methanol (MeOH), 2-propanol (IPA), ethyl acetate (EtOAc), methyl acetate (MeOAc), dichloromethane (DCM), methyl ethyl ketone (MEK), methyl t-butyl ether (MTBE), heptane, toluene, methyl acetate (MeOAc), isopropyl acetate (IPAc), methyl isobutyl ketone (MIBK), 2-methyltetrahydrofuran (2-MeTHF), 1,4-dioxane, tetrahydrofuran (THF), THF/water (1:1), water, dimethyl sufoxide (DMSO), dimethylacetamide (DMA, DMAc), and N-methylpyrrolidone (NMP). A weighed sample of Form A (about 50 mg) was treated with a known volume of a test solvent. The resulting mixture was agitated for 1 day at room temperature. If all of the solids appeared to be dissolved by visual inspection, the estimated solubility was calculated based on the total volume of solvent used to give a complete solution. If solids were present, a known volume of filtrate was evaporated to dryness and the weight of the residue was measured to estimate the solubility.

[5] = 0-90-0% RH cycle in DVS, 25° C.
[6] = compression, 2000 psi, RT, 1 min
[7] = heating in KF oven, 190° C., ~10 min
[8] = between 0 and 90% RH, room temperature

endotherm observed (DSC) [1]: endotherm observed at 157.01 °C
% loss (TGA) ([1]; up to 160° C.): 8.28% loss up to 160 °C
SMILES: CS(=O)(=O)O [methanesulfonic acid]

Resulting Form(s) [2, 5]: No form change
Resulting Form(s) [2, 6]: mainly Form D
Resulting Form(s) ([2]; compression, 2000 psi, RT, 1 min, listed as D): D (+ A?)
Resulting Form(s) [2, 7]: confirmed to be Form A
Hygroscopicity [3]: slightly hygroscopic
DVS water uptake [3, 8]: about 2.6 wt %
DVS water uptake ([3]; between 0 and 90% RH, room temperature, listed as D): DVS: ~2.6 wt % water
SMILES: CCOCc1cnc(Cl)nc1Oc1ccc2c(ccc3sc4c(c32)NC[C@@H](C)NC4=O)n1 [Form D, (R)-3-((2-chloro-5-(ethoxymethyl)pyrimidin-4-yl)oxy)-10-methyl-9,10,11,12-tetrahydro-8H-[1,4]diazepino[5′,6′:4,5]thieno[3,2-f]quinolin-8-one]

Resulting Form(s) [2, 5]: E + C + peaks
Resulting Form(s) [2, 6]: partially convert to Form E
Resulting Form(s) ([2]; compression, 2000 psi, RT, 1 min, listed as C): E + C + peaks
Resulting Form(s) [2, 7]: a mixture of Form A and Form C
Resulting Form(s) ([2]; heating in KF oven, 190° C., ~10 min, listed as C): A + C (shifted)
Resulting form ([2]; slurry in THF/water (5:95), time not given): convert to Form E
Hygroscopicity [3]: hygroscopic
DVS water uptake [3, 8]: approximately 4.1 wt %
DVS water uptake ([3]; between 0 and 90% RH, room temperature, listed as C): DVS: ~4.1 wt % water
SMILES: CCOCc1cnc(Cl)nc1Oc1ccc2c(ccc3sc4c(c32)NC[C@@H](C)NC4=O)n1 [Form C, (R)-3-((2-chloro-5-(ethoxymethyl)pyrimidin-4-yl)oxy)-10-methyl-9,10,11,12-tetrahydro-8H-[1,4]diazepino[5′,6′:4,5]thieno[3,2-f]quinolin-8-one]

Resulting Form(s) ([2]; compression, 2000 psi, RT, 1 min, listed as B): B + A
Resulting Form(s) [2, 7]: confirmed to be Form A
Form change upon storage ([2]; storage in vials): convert to Form A
SMILES: CCOCc1cnc(Cl)nc1Oc1ccc2c(ccc3sc4c(c32)NC[C@@H](C)NC4=O)n1 [Form B, (R)-3-((2-chloro-5-(ethoxymethyl)pyrimidin-4-yl)oxy)-10-methyl-9,10,11,12-tetrahydro-8H-[1,4]diazepino[5′,6′:4,5]thieno[3,2-f]quinolin-8-one]
Resulting Form(s) [2, 6]: mainly Form B, with a small amount of Form A

Resulting Form(s) [2, 5]: No form change
Resulting form ([2]; THF/water (5/95), long periods of equilibration): converted to Form A
Resulting Form(s) [2, 6]: still Form E
Resulting Form(s) [2, 7]: confirmed to be Form E
Resulting form ([2]; slurry in acetone, temperature and time not given): converts to Form A
DVS water uptake ([3]; between 0 and 60% RH): about 2.2 wt %
DVS water uptake [3, 8]: 7.5 wt %
DVS water uptake ([3]; between 0 and 90% RH, room temperature, listed as E): DVS: ~7.5 wt % water
SMILES: CCOCc1cnc(Cl)nc1Oc1ccc2c(ccc3sc4c(c32)NC[C@@H](C)NC4=O)n1 [Form E, (R)-3-((2-chloro-5-(ethoxymethyl)pyrimidin-4-yl)oxy)-10-methyl-9,10,11,12-tetrahydro-8H-[1,4]diazepino[5′,6′:4,5]thieno[3,2-f]quinolin-8-one]

Resulting Form(s) ([2]; slurry in THF/water (5:95), RT, 8 days): A + I
Resulting Form(s) ([2]; slurry in water, RT, 4 days): generated Form I
SMILES: CCOCc1cnc(Cl)nc1Oc1ccc2c(ccc3sc4c(c32)NC[C@@H](C)NC4=O)n1 [Form H, (R)-3-((2-chloro-5-(ethoxymethyl)pyrimidin-4-yl)oxy)-10-methyl-9,10,11,12-tetrahydro-8H-[1,4]diazepino[5′,6′:4,5]thieno[3,2-f]quinolin-8-one]

SMILES: NCCCC[C@H](N)C(=O)O [L-lysine]
% loss (TGA) ([1]; from 150 to 250° C.): 12.61% loss from 150 to 250 °C
% loss (TGA) ([1]; up to 150° C.): 7.32% loss up to 150 °C

SMILES: N#CS [thiocyanic acid]
% loss (TGA) ([1]; from 100 to 200° C.): 6.54% loss from 100 to 200 °C
% loss (TGA) ([1]; up to 100° C.): 3.04% loss up to 100 °C

endotherm observed (DSC) [1]: endotherm observed at 115.17 °C
% loss (TGA) ([1]; up to 120° C.): 1.69% loss up to 120 °C
SMILES: O=C(O)c1cc(O)ccc1O [gentisic acid]

% loss (TGA) ([1]; up to 130° C.): 3.50% loss up to 130 °C
SMILES: Cc1ccc(S(=O)(=O)O)cc1 [p-toluenesulfonic acid]

Resulting Form(s) [2, 5]: No form change
Resulting Form(s) [2, 6]: still Form A
Resulting Form(s) [2, 7]: confirmed to be Form A
solubility at 1 day ([4]; 2-MeTHF (2-methyltetrahydrofuran), organic solvent or mixture, 2-MeTHF, 1 day): < 2 mg/mL
solubility at 1 day ([4]; ACN (acetonitrile), organic solvent or mixture, ACN, 1 day): < 2 mg/mL
solubility at 1 day ([4]; ACN/water (1:1), aqueous with cosolvent or surfactant or cyclodextrin, ACN/water (1:1), 1 day): < 1 mg/mL
solubility at 1 day ([4]; DCM (dichloromethane), organic solvent or mixture, DCM, 1 day): 8 to 16 mg/mL (≈ 17 to 34 mM)
Approximate Solubility ([4]; DCM, 1 day): <9 mg/mL
solubility at 1 day ([4]; DMA (dimethylacetamide), organic solvent or mixture, DMA, 1 day): > 50 mg/mL
Approximate Solubility ([4]; DMA, 1 day): >50 mg/mL
Approximate Solubility ([4]; DMSO, 1 day): >50 mg/mL
solubility at 1 day ([4]; DMSO, organic solvent or mixture, 1 day): > 50 mg/mL
solubility at 1 day ([4]; EtOAc (ethyl acetate), organic solvent or mixture, EtOAc, 1 day): < 1 mg/mL
solubility at 1 day ([4]; EtOH (absolute ethanol), organic solvent or mixture, EtOH, 1 day): < 2 mg/mL
solubility at 1 day ([4]; EtOH/water (1:1), aqueous with cosolvent or surfactant or cyclodextrin, EtOH/water (1:1), 1 day): < 1 mg/mL
solubility at 1 day ([4]; IPA (2-propanol), organic solvent or mixture, IPA, 1 day): < 1 mg/mL
solubility at 1 day ([4]; IPAc (isopropyl acetate), organic solvent or mixture, IPAc, 1 day): < 1 mg/mL
solubility at 1 day ([4]; MEK (methyl ethyl ketone), organic solvent or mixture, MEK, 1 day): > 2 mg/mL
Approximate Solubility ([4]; MEK, 1 day): <3 mg/mL
solubility at 1 day ([4]; MIBK (methyl isobutyl ketone), organic solvent or mixture, MIBK, 1 day): < 1 mg/mL
solubility at 1 day ([4]; MTBE (methyl t-butyl ether), organic solvent or mixture, MTBE, 1 day): < 1 mg/mL
solubility at 1 day ([4]; MeOAc (methyl acetate), organic solvent or mixture, MeOAc, 1 day): < 2 mg/mL
solubility at 1 day ([4]; MeOH (methanol), organic solvent or mixture, MeOH, 1 day): < 3 mg/mL
solubility at 1 day ([4]; NMP (N-methylpyrrolidone), organic solvent or mixture, NMP, 1 day): > 50 mg/mL
Approximate Solubility ([4]; NMP, 1 day): >50 mg/mL
solubility at 1 day ([4]; THF (tetrahydrofuran), organic solvent or mixture, THF, 1 day): 8 to 16 mg/mL (≈ 17 to 34 mM)
Approximate Solubility ([4]; THF, 1 day): <10 mg/mL
Approximate Solubility ([4]; THF/water (1:1), 1 day): <16 mg/mL
solubility at 1 day ([4]; THF/water (1:1), aqueous with cosolvent or surfactant or cyclodextrin, THF/water (1:1), 1 day): 8 to 16 mg/mL (≈ 17 to 34 mM)
Approximate Solubility ([4]; acetone, 1 day): <3 mg/mL
solubility at 1 day ([4]; acetone, organic solvent or mixture, 1 day): > 2 mg/mL
solubility at 1 day ([4]; heptane, organic solvent or mixture, 1 day): < 1 mg/mL
solubility at 1 day ([4]; n-BuOH (n-butanol), organic solvent or mixture, n-BuOH, 1 day): < 1 mg/mL
solubility at 1 day ([4]; organic solvent or mixture, all other solvents tested (not DMSO, DMA, NMP, THF/water, THF, DCM, acetone, 1,4-dioxane, MEK)): < 3 mg/mL
solubility at 1 day ([4]; toluene, organic solvent or mixture, 1 day): < 1 mg/mL
solubility at 1 day ([4]; water, 1 day): < 1 mg/mL
Hygroscopicity [3]: slightly hygroscopic
DVS water uptake [3, 8]: about 2.5 wt %
DVS water uptake ([3]; between 0 and 90% RH, room temperature, listed as A): DVS: ~2.5 wt % water
SMILES: CCOCc1cnc(Cl)nc1Oc1ccc2c(ccc3sc4c(c32)NC[C@@H](C)NC4=O)n1 [Form A, (R)-3-((2-chloro-5-(ethoxymethyl)pyrimidin-4-yl)oxy)-10-methyl-9,10,11,12-tetrahydro-8H-[1,4]diazepino[5′,6′:4,5]thieno[3,2-f]quinolin-8-one]

endotherm observed (DSC) [1]: endotherm observed at 153.89 °C
% loss (TGA) ([1]; up to […] C.): 9.87% loss up to 155 °C
SMILES: O=C(O)/C=C\C(=O)O [maleic acid]

endotherm observed (DSC) [1]: endotherm observed at 169.60 °C
% loss (TGA) ([1]; up to 150° C.): 1.86% loss up to 150 °C
SMILES: O=C(O)c1ccc2ccccc2c1O [1-hydroxy-2-naphthoic acid (Form 2)]

Resulting Form(s) [2, 5]: change to Form A
DVS water uptake [3, 8]: Approximately 1.5 wt %
SMILES: CCOCc1cnc(Cl)nc1Oc1ccc2c(ccc3sc4c(c32)NC[C@@H](C)NC4=O)n1 [Form I, (R)-3-((2-chloro-5-(ethoxymethyl)pyrimidin-4-yl)oxy)-10-methyl-9,10,11,12-tetrahydro-8H-[1,4]diazepino[5′,6′:4,5]thieno[3,2-f]quinolin-8-one]

% loss (TGA) ([1]; up to 150° C.): 10.82% loss up to 150 °C
SMILES: O=C(O)c1ccc2ccccc2c1O [1-hydroxy-2-naphthoic acid (Form 1)]

endotherm observed (DSC) [1]: endotherm observed at 88.26 °C
% loss (TGA) ([1]; up to 100° C.): 2.55% loss up to 100 °C
SMILES: O=C1O[C@H]([C@@H](O)CO)C(O)=C1O [L-ascorbic acid]

% loss (TGA) ([1]; up to […] C.): 3.70% loss up to 165 °C
SMILES: O=C1NS(=O)(=O)c2ccccc21 [saccharin]
